This passage reports IC50 results from patent publication US20090299044A1 (priority 2006, published 2009).

The target in assay [1] is T1, human Kv1.3 (CHO) (Homo sapiens, UniProt P22001).
T1 construct: expressed in transfected cells; host or cells: CHO
The assay can be described thus: cell-based.

The target in assay [2] is T2, human Kv1.1 (HEK293) (Homo sapiens, UniProt Q09470).
T2 construct: expressed in transfected cells; host or cells: HEK293
Put plainly: cell-based.

Bridge positions count the residues as written; N and C are the ends. Square brackets hold non-standard residues; d marks the D form. Peptide text beside a SMILES is read from it. 1Nal = N[C@@H](Cc1cccc2ccccc12)C(=O)O

T2 sequence (Q09470 whole entry): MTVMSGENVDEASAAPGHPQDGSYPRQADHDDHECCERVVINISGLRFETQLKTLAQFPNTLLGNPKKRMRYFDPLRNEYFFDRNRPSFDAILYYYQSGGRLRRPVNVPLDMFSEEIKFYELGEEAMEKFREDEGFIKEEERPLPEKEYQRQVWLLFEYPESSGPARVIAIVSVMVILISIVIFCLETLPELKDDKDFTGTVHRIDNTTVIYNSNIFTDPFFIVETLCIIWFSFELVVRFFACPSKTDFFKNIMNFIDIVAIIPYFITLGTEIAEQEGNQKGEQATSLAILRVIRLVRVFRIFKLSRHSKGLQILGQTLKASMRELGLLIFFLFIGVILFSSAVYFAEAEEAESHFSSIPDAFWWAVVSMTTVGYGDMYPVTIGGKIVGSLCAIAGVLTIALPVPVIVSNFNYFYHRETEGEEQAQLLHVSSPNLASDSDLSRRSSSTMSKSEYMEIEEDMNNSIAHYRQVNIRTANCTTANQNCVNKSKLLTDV
T1 sequence (P22001 whole entry): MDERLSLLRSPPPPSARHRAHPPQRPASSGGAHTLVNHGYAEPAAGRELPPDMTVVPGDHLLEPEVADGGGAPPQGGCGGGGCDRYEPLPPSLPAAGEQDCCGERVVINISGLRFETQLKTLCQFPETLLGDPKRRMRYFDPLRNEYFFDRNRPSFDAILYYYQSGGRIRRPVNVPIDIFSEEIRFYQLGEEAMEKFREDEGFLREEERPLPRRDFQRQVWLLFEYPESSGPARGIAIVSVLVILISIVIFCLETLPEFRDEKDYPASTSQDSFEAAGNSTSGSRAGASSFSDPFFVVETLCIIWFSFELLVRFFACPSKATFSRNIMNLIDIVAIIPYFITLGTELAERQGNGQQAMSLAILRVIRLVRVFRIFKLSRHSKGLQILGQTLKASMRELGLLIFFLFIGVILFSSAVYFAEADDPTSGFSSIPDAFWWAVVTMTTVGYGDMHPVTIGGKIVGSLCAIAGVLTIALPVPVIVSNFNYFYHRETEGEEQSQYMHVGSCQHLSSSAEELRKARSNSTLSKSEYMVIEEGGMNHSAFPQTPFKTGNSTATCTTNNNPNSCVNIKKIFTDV

On to `CC[C@H](C)[C@@H]1NC(=O)[C@H](CCCCN)NC(=O)[C@@H](NC(=O)[C@H](CCCCN)NC(=O)[C@@H](NC(=O)[C@H](CC(N)=O)NC(=O)[C@@H](NC(=O)[C@@H](NC(=O)[C@@H](NC(=O)CN)C(C)C)[C@@H](C)CC)[C@@H](C)CC)C(C)C)CSSC[C@@H]2NC(=O)[C@H](CCCCN)NC(=O)CNC(=O)[C@H](Cc3ccccc3)NC(=O)[C@H](CCCNC(=N)N)NC(=O)[C@H](CCSC)NC(=O)CNC(=O)[C@H](C)NC(=O)[C@H](CCCNC(=N)N)NC(=O)[C@H](CCCCN)NC(=O)[C@@H]3CSSC[C@@H](C(=O)N[C@H](C(=O)N4CCC[C@H]4C(=O)N[C@@H](CCCCN)C(=O)O)[C@@H](C)O)NC(=O)[C@H](Cc4c[nH]cn4)NC(=O)[C@H](CSSC[C@H](NC(=O)[C@H](CCC(N)=O)NC(=O)[C@H](CCCNC(=N)N)NC(=O)[C@H](CO)NC1=O)C(=O)N[C@@H](CC(C)C)C(=O)N[C@@H](CCC(=O)O)C(=O)N1CCC[C@H]1C(=O)N3)NC(=O)[C@H](CCCCN)NC(=O)CNC(=O)[C@H](CC(N)=O)NC(=O)[C@H](CCSC)NC2=O` [K20R] (H-GVIINVKCKISRQCLEPCKRAGMRFGKCMNGKCHCTPK-OH; disulfide 8-28, 14-33, 18-35), for which the IC50 (commonly the point on the concentration scale where inhibition reaches its midpoint) in assay [1] is 0.00985 nM; in assay [2] it was < 0.00152 nM.

Turning to `CC[C@H](C)[C@@H]1NC(=O)[C@H](CCCCN)NC(=O)[C@@H](NC(=O)[C@H](CCCCN)NC(=O)[C@@H](NC(=O)[C@H](CC(N)=O)NC(=O)[C@@H](NC(=O)[C@@H](NC(=O)[C@@H](NC(=O)CN)C(C)C)[C@@H](C)CC)[C@@H](C)CC)C(C)C)CSSC[C@@H]2NC(=O)[C@H](CCC(=O)O)NC(=O)CNC(=O)[C@H](Cc3ccccc3)NC(=O)[C@H](CCCNC(=N)N)NC(=O)[C@H](CCSC)NC(=O)CNC(=O)[C@H](C)NC(=O)[C@H](CCCCN)NC(=O)[C@H](CCCCN)NC(=O)[C@@H]3CSSC[C@@H](C(=O)N[C@H](C(=O)N4CCC[C@H]4C(=O)N[C@@H](CCCCN)C(=O)O)[C@@H](C)O)NC(=O)[C@H](Cc4c[nH]cn4)NC(=O)[C@H](CSSC[C@H](NC(=O)[C@H](CCC(N)=O)NC(=O)[C@H](CCCNC(=N)N)NC(=O)[C@H](CO)NC1=O)C(=O)N[C@@H](CC(C)C)C(=O)N[C@@H](CCC(=O)O)C(=O)N1CCC[C@H]1C(=O)N3)NC(=O)[C@H](CCCCN)NC(=O)CNC(=O)[C@H](CC(N)=O)NC(=O)[C@H](CCSC)NC2=O` [K27E] (H-GVIINVKCKISRQCLEPCKKAGMRFGECMNGKCHCTPK-OH; disulfide 8-28, 14-33, 18-35), the values for the IC50 in assay [1] and in assay [2] were > 3.33 nM and 0.549 nM, respectively.

As for `CC[C@H](C)[C@@H]1NC(=O)[C@H](CCCCN)NC(=O)[C@@H](NC(=O)[C@H](CCCCN)NC(=O)[C@@H](NC(=O)[C@H](CC(N)=O)NC(=O)[C@@H](NC(=O)[C@@H](NC(=O)[C@@H](NC(=O)CN)C(C)C)[C@@H](C)CC)[C@@H](C)CC)C(C)C)CSSC[C@@H]2NC(=O)[C@H](Cc3cccc4ccccc34)NC(=O)CNC(=O)[C@H](Cc3ccccc3)NC(=O)[C@H](CCCNC(=N)N)NC(=O)[C@H](CCSC)NC(=O)CNC(=O)[C@H](C)NC(=O)[C@H](CCCCN)NC(=O)[C@H](CCCCN)NC(=O)[C@@H]3CSSC[C@@H](C(=O)N[C@H](C(=O)N4CCC[C@H]4C(=O)N[C@@H](CCCCN)C(=O)O)[C@@H](C)O)NC(=O)[C@H](Cc4c[nH]cn4)NC(=O)[C@H](CSSC[C@H](NC(=O)[C@H](CCC(N)=O)NC(=O)[C@H](CCCNC(=N)N)NC(=O)[C@H](CO)NC1=O)C(=O)N[C@@H](CC(C)C)C(=O)N[C@@H](CCC(=O)O)C(=O)N1CCC[C@H]1C(=O)N3)NC(=O)[C@H](CCCCN)NC(=O)CNC(=O)[C@H](CC(N)=O)NC(=O)[C@H](CCSC)NC2=O` [K27Nal] (H-GVIINVKCKISRQCLEPCKKAGMRFG[1Nal]CMNGKCHCTPK-OH; disulfide 8-28, 14-33, 18-35), the half-maximal inhibitory concentration (IC50) is > 3.33 nM in assay [1] and 1.04 nM in assay [2].

`CC[C@H](C)[C@@H]1NC(=O)[C@H](CCCCN)NC(=O)[C@@H](NC(=O)[C@H](CCCCN)NC(=O)[C@@H](NC(=O)[C@H](CC(N)=O)NC(=O)[C@@H](NC(=O)[C@@H](NC(=O)[C@@H](NC(=O)CN)C(C)C)[C@@H](C)CC)[C@@H](C)CC)C(C)C)CSSC[C@@H]2NC(=O)[C@H](CCCNC(=N)N)NC(=O)CNC(=O)[C@H](Cc3ccccc3)NC(=O)[C@H](CCCNC(=N)N)NC(=O)[C@H](CCSC)NC(=O)CNC(=O)[C@H](C)NC(=O)[C@H](CCCCN)NC(=O)[C@H](CCCCN)NC(=O)[C@@H]3CSSC[C@@H](C(=O)N[C@H](C(=O)N4CCC[C@H]4C(=O)N[C@@H](CCCCN)C(=O)O)[C@@H](C)O)NC(=O)[C@H](Cc4c[nH]cn4)NC(=O)[C@H](CSSC[C@H](NC(=O)[C@H](CCC(N)=O)NC(=O)[C@H](CCCNC(=N)N)NC(=O)[C@H](CO)NC1=O)C(=O)N[C@@H](CC(C)C)C(=O)N[C@@H](CCC(=O)O)C(=O)N1CCC[C@H]1C(=O)N3)NC(=O)[C@H](CCCCN)NC(=O)CNC(=O)[C@H](CC(N)=O)NC(=O)[C@H](CCSC)NC2=O` [K27R] (H-GVIINVKCKISRQCLEPCKKAGMRFGRCMNGKCHCTPK-OH; disulfide 8-28, 14-33, 18-35): the 50% inhibitory concentration (IC50) in assay [1] is 1.49 nM; in assay [2], > 3.33 nM.

`CC[C@H](C)[C@@H]1NC(=O)[C@H](CCCCN)NC(=O)[C@@H](NC(=O)[C@H](CCCCN)NC(=O)[C@@H](NC(=O)[C@H](CC(N)=O)NC(=O)[C@@H](NC(=O)[C@@H](NC(=O)[C@@H](NC(=O)CN)C(C)C)[C@@H](C)CC)[C@@H](C)CC)C(C)C)CSSC[C@@H]2NC(=O)[C@H](CCCCN)NC(=O)CNC(=O)[C@H](Cc3ccccc3)NC(=O)[C@H](CCCNC(=N)N)NC(=O)[C@H](CCSC)NC(=O)CNC(=O)[C@H](C)NC(=O)[C@H](CCCCN)NC(=O)[C@H](CCCCN)NC(=O)[C@@H]3CSSC[C@@H](C(=O)N[C@H](C(=O)N4CCC[C@H]4C(=O)N[C@@H](CCCCN)C(=O)O)[C@@H](C)O)NC(=O)[C@H](Cc4c[nH]cn4)NC(=O)[C@H](CSSC[C@H](NC(=O)[C@H](CCC(N)=O)NC(=O)[C@H](CCCNC(=N)N)NC(=O)[C@H](CO)NC1=O)C(=O)N[C@@H](CC(C)C)C(=O)N[C@@H](CCC(=O)O)C(=O)N1CCC[C@H]1C(=O)N3)NC(=O)[C@H](CCC(=O)O)NC(=O)CNC(=O)[C@H](CC(N)=O)NC(=O)[C@H](CCSC)NC2=O` [K32E] (H-GVIINVKCKISRQCLEPCKKAGMRFGKCMNGECHCTPK-OH; disulfide 8-28, 14-33, 18-35): the half-maximal inhibitory concentration (IC50) was 0.0156 nM in assay [1] and 0.0173 nM in assay [2].

On to `CC[C@H](C)[C@@H]1NC(=O)[C@H](CCCCN)NC(=O)[C@@H](NC(=O)[C@H](CCCCN)NC(=O)[C@@H](NC(=O)[C@H](CC(N)=O)NC(=O)[C@@H](NC(=O)[C@@H](NC(=O)[C@@H](NC(=O)CN)C(C)C)[C@@H](C)CC)[C@@H](C)CC)C(C)C)CSSC[C@@H]2NC(=O)[C@H](CCCCN)NC(=O)CNC(=O)[C@H](Cc3ccccc3)NC(=O)[C@H](CCCNC(=N)N)NC(=O)[C@H](CCSC)NC(=O)CNC(=O)[C@H](C)NC(=O)[C@H](CCCCN)NC(=O)[C@H](CCCCN)NC(=O)[C@@H]3CSSC[C@@H](C(=O)N[C@H](C(=O)N4CCC[C@H]4C(=O)N[C@@H](CCCCN)C(=O)O)[C@@H](C)O)NC(=O)[C@H](Cc4c[nH]cn4)NC(=O)[C@H](CSSC[C@H](NC(=O)[C@H](CCC(N)=O)NC(=O)[C@H](CCCNC(=N)N)NC(=O)[C@H](CO)NC1=O)C(=O)N[C@@H](CC(C)C)C(=O)N[C@@H](CCC(=O)O)C(=O)N1CCC[C@H]1C(=O)N3)NC(=O)[C@H](CCCNC(=N)N)NC(=O)CNC(=O)[C@H](CC(N)=O)NC(=O)[C@H](CCSC)NC2=O` [K32R] (H-GVIINVKCKISRQCLEPCKKAGMRFGKCMNGRCHCTPK-OH; disulfide 8-28, 14-33, 18-35), for which the figures for the half-inhibitory concentration (IC50) in assay [1] and in assay [2] were 0.0308 nM and 0.00724 nM, respectively.
